The values below come from publication PMC11055700 (Chemicke Zvesti, 2024).

For assay [1], the target named is T1, SARS-CoV-2 Spike-RBD (ancestral, WT) / ACE2 (Homo sapiens, UniProt Q9BYF1).
T1 construct: a SARS-CoV-2 RBD protein containing a C-terminal His tag; a full-length ACE2 peptide with a C-terminal Fc tag; purchased Sino Biological
Nature of the assay: biochemical. The assay is classed as binding.

Assay [2] has as its target T2, SARS-CoV-2 Spike-RBD (lambda) / ACE2 (Homo sapiens, UniProt Q9BYF1).
T2 construct: a SARS-CoV-2 RBD protein containing a C-terminal His tag; a full-length ACE2 peptide with a C-terminal Fc tag; purchased Sino Biological
Nature of the assay: biochemical. The assay is classed as binding.

Read-outs that look alike come from different tables or passages of the source.

T1 sequence (Q9BYF1 18-740): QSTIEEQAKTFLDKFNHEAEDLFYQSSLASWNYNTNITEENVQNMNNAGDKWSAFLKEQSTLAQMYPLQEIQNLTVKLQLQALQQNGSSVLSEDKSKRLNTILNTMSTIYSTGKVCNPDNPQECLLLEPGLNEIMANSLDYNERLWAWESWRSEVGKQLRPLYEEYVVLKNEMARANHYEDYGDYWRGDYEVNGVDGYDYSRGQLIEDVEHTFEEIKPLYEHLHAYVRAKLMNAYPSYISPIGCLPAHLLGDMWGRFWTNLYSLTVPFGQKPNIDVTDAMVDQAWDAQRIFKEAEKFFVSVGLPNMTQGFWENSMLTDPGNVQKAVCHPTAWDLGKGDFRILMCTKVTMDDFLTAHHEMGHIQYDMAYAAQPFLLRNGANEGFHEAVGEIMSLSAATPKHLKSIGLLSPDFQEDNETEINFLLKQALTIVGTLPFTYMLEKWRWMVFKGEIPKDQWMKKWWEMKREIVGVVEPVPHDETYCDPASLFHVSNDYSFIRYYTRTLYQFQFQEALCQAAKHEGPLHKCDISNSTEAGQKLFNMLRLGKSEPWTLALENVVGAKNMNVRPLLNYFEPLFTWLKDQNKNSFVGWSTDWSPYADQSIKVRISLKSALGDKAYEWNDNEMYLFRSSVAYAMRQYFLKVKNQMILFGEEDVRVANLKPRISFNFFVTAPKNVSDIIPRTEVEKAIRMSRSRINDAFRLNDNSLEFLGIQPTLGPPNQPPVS
T2 sequence (Q9BYF1 18-740): as above

On to `O=C1Nc2ccc(Cl)cc2C1=NNc1ccc([N+](=O)[O-])cc1[N+](=O)[O-]` [H2L, 5-chloro-3-(2-(2,4-dinitrophenyl)hydrazono)indolin-2-one], for which, in assay [1] (IC50 spike RBD/ACE2 binding, WT RBD sequence), the IC50 is 448 nM. The “fold difference in IC50 for any variant versus WT RBD” value in assay [2] is reported as at most 1.4 fold.
Consider REGN10933, for which the IC50 in assay [1] (read-out: IC50 spike RBD/ACE2 binding, WT RBD sequence) was determined as 1.3 nM.
